{"source": "paper PMC4863226", "about": "(Molecular imaging, 2015)", "key": {"in vivo": {"assay": "in vivo", "conditions": "female, athymic Nu/Nu, mouse, 3.7 MBq, total radioactivity"}, "[1]": {"system": "HCT-116 tumor bearing mice", "assay": "Biodistribution", "conditions": "for Bone uptake / Brain uptake / Fat uptake / Heart uptake / Kidney uptake / L lg int (lower large intestine) uptake / Liver uptake / Lung uptake / Muscle uptake / Sm int (small intestine) uptake / Spleen uptake / Stomach uptake / U lg int (upper large intestine) uptake: HCT-116 tumor bearing mice; for Bone uptake / Brain uptake / Fat uptake / Heart uptake / Kidney uptake / L lg int (lower large intestine) uptake / Liver uptake / Lung uptake / Muscle uptake / Sm int (small intestine) uptake / Spleen uptake / Stomach uptake / U lg int (upper large intestine) uptake / Tumor uptake: gamma counter; for Bone uptake / Brain uptake / Fat uptake / Heart uptake / Kidney uptake / L lg int (lower large intestine) uptake / Liver uptake / Lung uptake / Muscle uptake / Sm int (small intestine) uptake / Spleen uptake / Stomach uptake / U lg int (upper large intestine) uptake / Tumor uptake / Tumor-to-blood ratio: mean ± SD; for Tumor uptake: HCT-116 tumor xenograft; for Tumor uptake / Tumor-to-blood ratio: mice; for Tumor-to-blood ratio: HCT-116 tumor xenografts"}, "[2]": {"conditions": "Sm int (small intestine) uptake"}}, "note": "Where a SMILES comes first, the peptide text is derived from it. Bridges are numbered along the chain shown (N, C = ends). The star is where a group is joined. DOTA = O=C(O)CN1CCN(CC(=O)O)CCN(CC(=O)*)CCN(CC(=O)O)CC1; NOTA = O=C(O)CN1CCN(CC(=O)O)CCN(CC(=O)*)CC1; X1 = O=[N+]([O-])c1cc([N+](=O)[O-])c(*)cc1F; PEG4 = NCCOCCOCCOCCOCCC(=O)O"}
{"smiles": "CC[C@H](C)[C@@H]1NC(=O)[C@H](CC(=O)O)NC(=O)[C@@H](NC(=O)[C@H](CCC(=O)O)NC(=O)[C@H](CC(N)=O)NC(=O)CNC(=O)CNC(=O)CCOCCOCCOCCOCCNC(=O)CN2CCN(CC(=O)O)CCN(CC(=O)O)CC2)CSSC[C@@H](C(=O)N[C@@H](Cc2ccccc2)C(=O)N[C@@H](CCC(=O)O)C(=O)N[C@@H](CCCNC(=N)N)C(=O)N[C@@H](CCCCNc2cc(F)c([N+](=O)[O-])cc2[N+](=O)[O-])C(N)=O)NC(=O)[C@H](CCC(=O)O)NC(=O)[C@H](Cc2c[nH]c3ccccc23)NC(=O)[C@H](CCC(=O)O)NC(=O)[C@H](Cc2c[nH]c3ccccc23)NC(=O)[C@H](CCSC)NC(=O)[C@H](CCCNC(=N)N)NC(=O)[C@H](C)NC1=O", "note": "[^55Co-NO2A-L19K-FDNB] ({NOTA-PEG4}-GGNECDIARMWEWECFERK(X1)-NH2; disulfide 5-15)", "values": [{"measurement": "tissue uptake at 24 h", "setting": "in vivo; Bone uptake", "value": "0.28 ± 0.04", "unit": "%ID/g"}, {"measurement": "tissue uptake at 48 h", "setting": "in vivo; Bone uptake", "value": "0.14 ± 0.02", "unit": "%ID/g"}, {"measurement": "tissue uptake at 24 h", "setting": "in vivo; Fat uptake", "value": "0.8 ± 0.4", "unit": "%ID/g"}, {"measurement": "tissue uptake at 48 h", "setting": "in vivo; Fat uptake", "value": "0.3 ± 0.1", "unit": "%ID/g"}, {"measurement": "tissue uptake at 24 h", "setting": "in vivo; Liver uptake", "value": "1 ± 0.1", "unit": "%ID/g"}, {"measurement": "tissue uptake at 48 h", "setting": "in vivo; Liver uptake", "value": "0.44 ± 0.03", "unit": "%ID/g"}, {"measurement": "tissue uptake at 24 h", "setting": "in vivo; Lung uptake", "value": "0.9 ± 0.1", "unit": "%ID/g"}, {"measurement": "tissue uptake at 48 h", "setting": "in vivo; Lung uptake", "value": "0.46 ± 0.06", "unit": "%ID/g"}, {"measurement": "tissue uptake at 24 h", "setting": "in vivo; [2]", "value": "0.26 ± 0.01", "unit": "%ID/g"}, {"measurement": "tissue uptake at 48 h", "setting": "in vivo; [2]", "value": "0.14 ± 0.04", "unit": "%ID/g"}, {"measurement": "tissue uptake at 24 h", "setting": "in vivo; Tumor uptake", "value": "0.9 ± 0.1", "unit": "%ID/g"}, {"measurement": "tissue uptake at 48 h", "setting": "in vivo; Tumor uptake", "value": "0.49 ± 0.09", "unit": "%ID/g"}]}
{"smiles": "CC[C@H](C)[C@@H]1NC(=O)[C@H](CC(=O)O)NC(=O)[C@@H](NC(=O)[C@H](CCC(=O)O)NC(=O)[C@H](CC(N)=O)NC(=O)CNC(=O)CNC(=O)CCOCCOCCOCCOCCNC(=O)CN2CCN(CC(=O)O)CCN(CC(=O)O)CCN(CC(=O)O)CC2)CSSC[C@@H](C(=O)N[C@@H](Cc2ccccc2)C(=O)N[C@@H](CCC(=O)O)C(=O)N[C@@H](CCCNC(=N)N)C(=O)N[C@@H](CCCCNc2cc(F)c([N+](=O)[O-])cc2[N+](=O)[O-])C(N)=O)NC(=O)[C@H](CCC(=O)O)NC(=O)[C@H](Cc2c[nH]c3ccccc23)NC(=O)[C@H](CCC(=O)O)NC(=O)[C@H](Cc2c[nH]c3ccccc23)NC(=O)[C@H](CCSC)NC(=O)[C@H](CCCNC(=N)N)NC(=O)[C@H](C)NC1=O", "note": "[^55Co-DO3A-L19K-FDNB] ({DOTA-PEG4}-GGNECDIARMWEWECFERK(X1)-NH2; disulfide 5-15)", "values": [{"measurement": "tissue uptake at 24 h", "setting": "in vivo; Bone uptake", "value": "0.3 ± 0.04", "unit": "%ID/g"}, {"measurement": "tissue uptake at 48 h", "setting": "in vivo; Bone uptake", "value": "0.26 ± 0.05", "unit": "%ID/g"}, {"measurement": "tissue uptake at 24 h", "setting": "in vivo; Fat uptake", "value": "0.4 ± 0.1", "unit": "%ID/g"}, {"measurement": "tissue uptake at 48 h", "setting": "in vivo; Fat uptake", "value": "0.3 ± 0.03", "unit": "%ID/g"}, {"measurement": "tissue uptake at 24 h", "setting": "in vivo; Liver uptake", "value": "1.1 ± 0.2", "unit": "%ID/g"}, {"measurement": "tissue uptake at 48 h", "setting": "in vivo; Liver uptake", "value": "0.7 ± 0.1", "unit": "%ID/g"}, {"measurement": "tissue uptake at 24 h", "setting": "in vivo; Lung uptake", "value": "0.8 ± 0.1", "unit": "%ID/g"}, {"measurement": "tissue uptake at 48 h", "setting": "in vivo; Lung uptake", "value": "0.56 ± 0.03", "unit": "%ID/g"}, {"measurement": "tissue uptake at 24 h", "setting": "in vivo; [2]", "value": "0.31 ± 0.04", "unit": "%ID/g"}, {"measurement": "tissue uptake at 48 h", "setting": "in vivo; [2]", "value": "0.19 ± 0.03", "unit": "%ID/g"}, {"measurement": "tissue uptake at 24 h", "setting": "in vivo; Tumor uptake", "value": "1.1 ± 0.2", "unit": "%ID/g"}, {"measurement": "tissue uptake at 48 h", "setting": "in vivo; Tumor uptake", "value": "0.71 ± 0.03", "unit": "%ID/g"}]}
{"smiles": "[Cl][55Co][Cl]", "note": "[^55CoCl2]", "values": [{"measurement": "Bone uptake", "setting": "[1]; 2 hr p.i.", "value": "1.3 ± 0.2", "unit": "%ID/g"}, {"measurement": "Brain uptake", "setting": "[1]; 2 hr p.i.", "value": "0.31 ± 0.02", "unit": "%ID/g"}, {"measurement": "Fat uptake", "setting": "[1]; 2 hr p.i.", "value": "1.5 ± 0.9", "unit": "%ID/g"}, {"measurement": "Heart uptake", "setting": "[1]; 2 hr p.i.", "value": "4.8 ± 0.4", "unit": "%ID/g"}, {"measurement": "Kidney uptake", "setting": "[1]; 2 hr p.i.", "value": "10.5 ± 1.4", "unit": "%ID/g"}, {"measurement": "L lg int (lower large intestine) uptake", "setting": "[1]; 2 hr p.i.", "value": "1.9 ± 1.0", "unit": "%ID/g"}, {"measurement": "Liver uptake", "setting": "[1]; 2 hr p.i.", "value": "15.7 ± 0.4", "unit": "%ID/g"}, {"measurement": "Lung uptake", "setting": "[1]; 2 hr p.i.", "value": "4.0 ± 0.3", "unit": "%ID/g"}, {"measurement": "Muscle uptake", "setting": "[1]; 2 hr p.i.", "value": "0.6 ± 0.1", "unit": "%ID/g"}, {"measurement": "Sm int (small intestine) uptake", "setting": "[1]; 2 hr p.i.", "value": "3.6 ± 0.6", "unit": "%ID/g"}, {"measurement": "Spleen uptake", "setting": "[1]; 2 hr p.i.", "value": "1.9 ± 0.4", "unit": "%ID/g"}, {"measurement": "Stomach uptake", "setting": "[1]; 2 hr p.i.", "value": "1.1 ± 0.1", "unit": "%ID/g"}, {"measurement": "U lg int (upper large intestine) uptake", "setting": "[1]; 2 hr p.i.", "value": "4.3 ± 0.8", "unit": "%ID/g"}, {"measurement": "Tumor uptake", "setting": "[1]; 2 hr p.i.", "value": "2.8 ± 0.6", "unit": "%ID/g"}, {"measurement": "Tumor-to-blood ratio", "setting": "[1]; 2 hrs p.i.", "value": "0.6 ± 0.1"}, {"measurement": "Bone uptake", "setting": "[1]; 24 hr p.i., n=3", "value": "0.8 ± 0.1", "unit": "%ID/g"}, {"measurement": "Brain uptake", "setting": "[1]; 24 hr p.i., n=3", "value": "0.17 ± 0.03", "unit": "%ID/g"}, {"measurement": "Fat uptake", "setting": "[1]; 24 hr p.i., n=3", "value": "0.7 ± 0.4", "unit": "%ID/g"}, {"measurement": "Heart uptake", "setting": "[1]; 24 hr p.i., n=3", "value": "2.8 ± 0.7", "unit": "%ID/g"}, {"measurement": "Kidney uptake", "setting": "[1]; 24 hr p.i., n=3", "value": "4.4 ± 0.4", "unit": "%ID/g"}, {"measurement": "L lg int (lower large intestine) uptake", "setting": "[1]; 24 hr p.i., n=3", "value": "2.2 ± 0.3", "unit": "%ID/g"}, {"measurement": "Liver uptake", "setting": "[1]; 24 hr p.i., n=3", "value": "6.2 ± 0.8", "unit": "%ID/g"}, {"measurement": "Lung uptake", "setting": "[1]; 24 hr p.i., n=3", "value": "1.9 ± 0.1", "unit": "%ID/g"}, {"measurement": "Muscle uptake", "setting": "[1]; 24 hr p.i., n=3", "value": "0.37 ± 0.08", "unit": "%ID/g"}, {"measurement": "Sm int (small intestine) uptake", "setting": "[1]; 24 hr p.i., n=3", "value": "1.1 ± 0.2", "unit": "%ID/g"}, {"measurement": "Spleen uptake", "setting": "[1]; 24 hr p.i., n=3", "value": "0.82 ± 0.05", "unit": "%ID/g"}, {"measurement": "Stomach uptake", "setting": "[1]; 24 hr p.i., n=3", "value": "1.0 ± 0.2", "unit": "%ID/g"}, {"measurement": "U lg int (upper large intestine) uptake", "setting": "[1]; 24 hr p.i., n=3", "value": "1.5 ± 0.1", "unit": "%ID/g"}, {"measurement": "Tumor uptake", "setting": "[1]; 24 hr p.i., n=3", "value": "1.6 ± 0.2", "unit": "%ID/g"}, {"measurement": "Bone uptake", "setting": "[1]; 48 hr p.i., n=3", "value": "0.5 ± 0.1", "unit": "%ID/g"}, {"measurement": "Brain uptake", "setting": "[1]; 48 hr p.i., n=3", "value": "0.11 ± 0.01", "unit": "%ID/g"}, {"measurement": "Fat uptake", "setting": "[1]; 48 hr p.i., n=3", "value": "0.23 ± 0.05", "unit": "%ID/g"}, {"measurement": "Heart uptake", "setting": "[1]; 48 hr p.i., n=3", "value": "1.4 ± 0.2", "unit": "%ID/g"}, {"measurement": "Kidney uptake", "setting": "[1]; 48 hr p.i., n=3", "value": "1.9 ± 0.2", "unit": "%ID/g"}, {"measurement": "L lg int (lower large intestine) uptake", "setting": "[1]; 48 hr p.i., n=3", "value": "1.2 ± 0.2", "unit": "%ID/g"}, {"measurement": "Liver uptake", "setting": "[1]; 48 hr p.i., n=3", "value": "2.7 ± 0.7", "unit": "%ID/g"}, {"measurement": "Lung uptake", "setting": "[1]; 48 hr p.i., n=3", "value": "0.98 ± 0.09", "unit": "%ID/g"}, {"measurement": "Muscle uptake", "setting": "[1]; 48 hr p.i., n=3", "value": "0.17 ± 0.03", "unit": "%ID/g"}, {"measurement": "Sm int (small intestine) uptake", "setting": "[1]; 48 hr p.i., n=3", "value": "0.50 ± 0.04", "unit": "%ID/g"}, {"measurement": "Spleen uptake", "setting": "[1]; 48 hr p.i., n=3", "value": "0.46 ± 0.04", "unit": "%ID/g"}, {"measurement": "Stomach uptake", "setting": "[1]; 48 hr p.i., n=3", "value": "0.5 ± 0.1", "unit": "%ID/g"}, {"measurement": "U lg int (upper large intestine) uptake", "setting": "[1]; 48 hr p.i., n=3", "value": "0.7 ± 0.1", "unit": "%ID/g"}, {"measurement": "Tumor uptake", "setting": "[1]; 48 hr p.i., n=3", "value": "0.86 ± 0.08", "unit": "%ID/g"}, {"measurement": "Tumor-to-blood ratio", "setting": "[1]; 48 hrs p.i., P=0.006 vs 2 hrs", "value": "1.9 ± 0.4"}, {"measurement": "Consecutive decrease in liver and kidney uptake", "setting": "[1]; at 24 and 48 hrs p.i. after high uptake at 2 hrs p.i.", "value": "about 2 fold"}, {"measurement": "Increase of tumor-to-blood ratio", "setting": "[1]; from 2 to 48 hrs p.i.", "value": 3, "unit": "fold"}]}
